Source: US8618357B2, “Sweetpotato SRD1 cDNA and transgenic plants with high-numbered storage roots using the same” (Korea University Research and Business Foundation, priority 2010, dated 2013)

Test system: SRD1 transcript
Experiment: Transcriptional regulation of SRD1 in response to exogenous IAA in fibrous roots of single-leaf plantlets (real-time RT-PCR)
Assay type: in vivo, sweetpotato
Conditions: for transcript level of SRD1: fibrous roots, 25° C. in the dark, FIG. 7A; for transcript level of SRD1 (time course): FIG. 7B
Experimental: To determine the transcriptional regulation of SRD1, SRD1-specific primers [5′-[…]-3′(SEQ ID NO.: 10) and 5′-GTGCACGAAACTCCCCTT-3′(SEQ ID NO.: 11)] were designed to contain nucleotide 180 (the nucleotide showing an SNP between SRD1 and IbMADS1) and the 3 bp deletion region in SRD1 at the 3′ end of the forward primer and at the 3′ end of the reverse primer, respectively (FIG. 1).
The roots of sweetpotato were treated with IAA according to the following method. Sweetpotato plantlets bearing a single leaf and petiole (single-leaf plantlets) were collected from sweetpotato plants and incubated in flasks containing distilled water for 3 weeks. After fibrous roots had developed from the distal end of the petiole, the single-leaf plantlets were incubated in various concentrations of IAA (0, 50, 500, 1000, 2000 μM) at 25° C. in the dark for various time periods (0-24 h). After the hormone treatment, total RNA was extracted from the fibrous roots using the RNeasy Plant Mini Kit™ (Qiagen) and used for real-time and semi-quantitative reverse transcription-PCR (RT-PCR).
Total RNA (5 μg) was used for first-strand cDNA synthesis using the SuperScript III first-strand cDNA synthesis kit (Invitrogen). The resulting cDNA solution was then diluted with 30 μl of TE (10 mM TRIS-HCl, pH 8.0, 1 mM EDTA). The primers for real-time RT-PCR were as follows: SRD1 (5′-[…]-3′; SEQ ID NO.: 10), 5′-GTGCACGAAACTCCCCTT-3′; SEQ ID NO. 11). Real-time PCR analysis was performed using the LightCycler 480 quantification system (Roche Diagnostics) according to the manufacturer's instructions. Expression levels were normalized with β-tubulin expression amplified with 5′-[…]-3′ (SEQ ID NO.: 12) and 5′-[…]-3′ (SEQ ID NO.: 13) primers. PCR were performed starting with pre-denaturation at 95° C. for 10 min before 45 cycles of denaturation at 95° C. for 10 sec, annealing at 58° C. for 10 sec and extension at 72° C. for 20 sec. Following the amplification phase, a melting curve analysis was conducted from 65° C. to 97° C. The second derivative maximum method in the LightCycler 480 quantification software (Roche Diagnostics) was used to evaluate the data.

Q: Which results are given for `O=C(O)Cc1c[nH]c2ccccc12` [IAA, Indole-3-acetic acid]?
A: transcript level of SRD1 (50 μM IAA): decreased; transcript level of SRD1 (time course) (500 μM IAA, 0.5 h after treatment): decreased compared with the control; transcript level of SRD1 (time course) (500 μM IAA, 1 h after treatment): decreased compared with the control; transcript level of SRD1 (time course) (500 μM IAA, 3 h after treatment): decreased compared with the control; transcript level of SRD1 (time course) (500 μM IAA, 6 h after treatment): increased sharply; transcript level of SRD1 (time course) (500 μM IAA, 12 h after treatment): decreased compared with the control; transcript level of SRD1 (time course) (500 μM IAA, 24 h after treatment): decreased compared with the control; transcript level of SRD1 (500 μM IAA): decreased; transcript level of SRD1 (1000 μM IAA): increased sharply; transcript level of SRD1 (2000 μM IAA): decreased to almost the same level as that observed at 0 μM IAA
